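96-well plates; 48 h exposure; 5 concentrations. Endpoints by linear interpolation between flanking doses. Not reached: highest tested concentration assigned. GI50: concentration for 50% inhibition of growth.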 Activity calls are given as the source filed them. No stated cut-off is given here; in the data, active = GI50 up to about 1.1 µM and inactive = higher.
Experiments:
Experiment in all cases: NCI-60 cell line screen, 48 h
[1] = system: COLO 205
[2] = system: DLD-1
[3] = system: HCT-116
[4] = system: HCT-15
[5] = system: HL-60
[6] = system: HOP-62
[7] = system: IGROV-1
[8] = system: KM-20L2
[9] = system: KM12
[10] = system: NCI-H23
[11] = system: NCI-H460
[12] = system: OVCAR-3
[13] = system: OVCAR-4
[14] = system: OVCAR-5
[15] = system: OVCAR-8
[16] = system: SF-268
[17] = system: SF-539
[18] = system: SNB-19
[19] = system: SNB-78
[20] = system: UO-31

| Structure (SMILES) | GI50 [1] | GI50 [2] | GI50 [3] | GI50 [4] | GI50 [5] | GI50 [6] | GI50 [7] | GI50 [8] | GI50 [9] | GI50 [10] | GI50 [11] | GI50 [12] | GI50 [13] | GI50 [14] | GI50 [15] | GI50 [16] | GI50 [17] | GI50 [18] | GI50 [19] | GI50 [20] |
| --- | --- | --- | --- | --- | --- | --- | --- | --- | --- | --- | --- | --- | --- | --- | --- | --- | --- | --- | --- | --- |
| Cc1ccc(OP2(=O)Oc3ccc4ccccc4c3CN2c2ccc(Cl)cc2)cc1C (stereo not given) | > 100 µM (inactive) | > 100 µM (inactive) | > 100 µM (inactive) | > 100 µM | > 100 µM (inactive) | > 100 µM (inactive) | > 100 µM (inactive) | > 100 µM (inactive) | > 100 µM (inactive) | > 100 µM (inactive) | > 100 µM (inactive) | > 100 µM (inactive) | > 100 µM (inactive) | > 100 µM (inactive) | > 100 µM (inactive) | > 100 µM (inactive) | > 100 µM (inactive) | > 100 µM (inactive) | > 100 µM (inactive) | > 100 µM (inactive) |
| Cc1ccccc1NC(=O)C(=O)C(C1OC(=O)c2ccccc21)[N+](=O)[O-] (stereo not given) | > 100 µM (inactive) | > 100 µM (inactive) | > 100 µM (inactive) | > 100 µM | > 100 µM (inactive) | > 100 µM (inactive) | > 100 µM (inactive) | > 100 µM (inactive) | > 100 µM (inactive) | > 100 µM (inactive) | > 100 µM (inactive) | – | > 100 µM (inactive) | > 100 µM (inactive) | > 100 µM (inactive) | > 100 µM (inactive) | > 100 µM (inactive) | > 100 µM (inactive) | > 100 µM (inactive) | > 100 µM (inactive) |
| CSCSCC(N)CO.Cc1[nH]c(=O)[nH]c(=O)c1/C=C/C(=O)O | > 625 µM (inactive) | > 625 µM (inactive) | > 625 µM (inactive) | > 625 µM | > 625 µM (inactive) | > 625 µM (inactive) | > 625 µM (inactive) | > 625 µM (inactive) | > 625 µM (inactive) | > 625 µM (inactive) | > 625 µM (inactive) | > 625 µM (inactive) | > 625 µM (inactive) | > 625 µM (inactive) | 492 µM (inactive) | > 625 µM (inactive) | > 625 µM (inactive) | > 625 µM (inactive) | 618 µM (inactive) | > 625 µM (inactive) |
| C=CC1(NC(=O)c2ccccc2)CCC(C(C)(C)C)CC1 (stereo not given) | 21.7 µM (inactive) | 36.6 µM (inactive) | 22.8 µM (inactive) | 32.4 µM | 14.4 µM (inactive) | 35.8 µM (inactive) | 37.6 µM (inactive) | 19.1 µM (inactive) | 35.2 µM (inactive) | 32 µM (inactive) | 31.1 µM (inactive) | 29.6 µM (inactive) | 27.7 µM (inactive) | 28.1 µM (inactive) | 49.7 µM (inactive) | 43.2 µM (inactive) | 44.3 µM (inactive) | 30.1 µM (inactive) | 39.1 µM (inactive) | 22 µM (inactive) |
| COc1ccccc1-c1cc(O)c2c(C)ccnc2n1 | 19.5 µM (inactive) | – | – | 28.4 µM | – | 30.1 µM (inactive) | > 100 µM (inactive) | – | 27.7 µM (inactive) | 29.9 µM (inactive) | – | – | 46.2 µM (inactive) | 52.4 µM (inactive) | 43.6 µM (inactive) | 45.5 µM (inactive) | 30.8 µM (inactive) | 26.3 µM (inactive) | – | 33 µM (inactive) |
| O=[N+]([O-])c1cnccc1-n1nnc2ccccc21 | 17.9 µM (inactive) | 20.2 µM (inactive) | 24.4 µM (inactive) | 18 µM | 16 µM (inactive) | 25.1 µM (inactive) | 13.9 µM (inactive) | 29.2 µM (inactive) | 17.2 µM (inactive) | 18.2 µM (inactive) | 21.5 µM (inactive) | 17.8 µM (inactive) | 15.3 µM (inactive) | 32.1 µM (inactive) | 17.7 µM (inactive) | 18.8 µM (inactive) | 20.5 µM (inactive) | 30.6 µM (inactive) | 27 µM (inactive) | 19.4 µM (inactive) |
| O=C1OCc2cccc3c2-c2c1cccc2C(=O)OC3 | > 100 µM (inactive) | > 100 µM (inactive) | > 100 µM (inactive) | > 100 µM | > 100 µM (inactive) | > 100 µM (inactive) | > 100 µM (inactive) | > 100 µM (inactive) | > 100 µM (inactive) | > 100 µM (inactive) | – | > 100 µM (inactive) | > 100 µM (inactive) | – | > 100 µM (inactive) | > 100 µM (inactive) | > 100 µM (inactive) | > 100 µM (inactive) | > 100 µM (inactive) | > 100 µM (inactive) |
| COC(=O)N1CC2C3C4CC(C(c5ccccc5)=C4c4ccccc4)C3C21 (stereo not given) | 23.1 µM (inactive) | – | 11.9 µM (inactive) | – | – | 19.3 µM (inactive) | 17.5 µM (inactive) | – | 14.6 µM (inactive) | 20.9 µM (inactive) | 14.5 µM (inactive) | 15.5 µM (inactive) | 13.1 µM (inactive) | 27.7 µM (inactive) | 17.8 µM (inactive) | 16.3 µM (inactive) | 13.8 µM (inactive) | 21.1 µM (inactive) | – | 12.8 µM (inactive) |

Source: ChEMBL document CHEMBL1201862, “PubChem BioAssay data set” (2004)
